Each block holds one compound with its values, some of them ahead of it. Calls of active or inactive are those of the source.
What was measured:
[1] = HepG2 cell cytotoxicity, dose response, cytotoxicity control, cherry-picks, set 5 (AID 1053118); assay type: functional, cell-based
[2] = molecular target: Matrix metalloproteinase-14 (Homo sapiens, UniProt P50281); assay: Dose Response confirmation of uHTS hits for a small molecule inhibitors of MT1-MMP activation in a fluorescence assay set 1.; assay type: functional
[3] = molecular target: Potassium channel subfamily K member 9 (Homo sapiens, UniProt Q9NPC2); assay: TASK3 (KCNK9) channel inhibitors, thallium flux, SAR follow-up, selectivity assay for TASK1 inhibitor project, cell-based, FluxOR thallium flux, concentration-response (AID 652211); assay type: functional;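 note: potency is for inhibitors of the channel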
Chain of Potassium channel subfamily K member 9 (Q9NPC2 whole entry): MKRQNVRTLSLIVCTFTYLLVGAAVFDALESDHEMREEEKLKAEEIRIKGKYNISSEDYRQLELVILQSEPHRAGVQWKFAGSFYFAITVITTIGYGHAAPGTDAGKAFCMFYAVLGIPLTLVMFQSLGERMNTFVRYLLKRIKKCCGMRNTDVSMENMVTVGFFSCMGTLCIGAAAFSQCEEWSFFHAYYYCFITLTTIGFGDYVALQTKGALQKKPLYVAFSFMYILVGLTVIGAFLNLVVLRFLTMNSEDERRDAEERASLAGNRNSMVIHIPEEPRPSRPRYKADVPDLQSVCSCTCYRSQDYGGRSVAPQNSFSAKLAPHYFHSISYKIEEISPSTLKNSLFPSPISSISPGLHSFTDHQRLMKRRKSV

[4] = molecular target: Paired box protein Pax-8 (Homo sapiens, UniProt Q06710); assay: inhibitors of PAX8-driven TPO luciferase reporter, dose response, RMG-I cells, cherry-pick (AID 687027); assay type: functional, cell-based;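 note: luciferase reporter driven by Pax8 target thyroperoxidase promoter measured by SteadyGlo luminescence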
Chain of Paired box protein Pax-8 (Q06710 whole entry): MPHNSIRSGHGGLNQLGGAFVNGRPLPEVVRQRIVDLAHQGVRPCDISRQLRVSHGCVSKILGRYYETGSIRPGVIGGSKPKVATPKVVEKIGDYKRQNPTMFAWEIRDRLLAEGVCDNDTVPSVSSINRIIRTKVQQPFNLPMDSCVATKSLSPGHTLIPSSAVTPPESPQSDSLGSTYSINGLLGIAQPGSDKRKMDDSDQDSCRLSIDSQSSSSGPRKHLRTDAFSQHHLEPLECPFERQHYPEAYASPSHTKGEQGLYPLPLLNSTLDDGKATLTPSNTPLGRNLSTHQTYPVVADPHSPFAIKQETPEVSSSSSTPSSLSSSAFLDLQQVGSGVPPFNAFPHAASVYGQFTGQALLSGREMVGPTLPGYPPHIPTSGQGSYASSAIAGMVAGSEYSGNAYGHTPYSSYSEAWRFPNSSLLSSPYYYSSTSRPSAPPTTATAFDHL

[5] = NIH:OVCAR-3 ovarian cancer cell cytotoxicity, dose response, PAX8 inhibitor project, plate reader, dry powder samples (AID 743044); assay type: functional, cell-based
[6] = IOSE-T80 ovarian epithelial cell cytotoxicity, dose response, cytotoxicity control for PAX8 inhibitor project, plate reader, dry powder samples (AID 743045); assay type: functional, cell-based
[7] = molecular target: Beta-galactosidase (Escherichia coli, UniProt Q8VNN2); assay: Dose response counterscreen for EBI2 assay utilizing the enzyme, b-galactosidase.; assay type: functional
Chain of Beta-galactosidase (Q8VNN2 whole entry): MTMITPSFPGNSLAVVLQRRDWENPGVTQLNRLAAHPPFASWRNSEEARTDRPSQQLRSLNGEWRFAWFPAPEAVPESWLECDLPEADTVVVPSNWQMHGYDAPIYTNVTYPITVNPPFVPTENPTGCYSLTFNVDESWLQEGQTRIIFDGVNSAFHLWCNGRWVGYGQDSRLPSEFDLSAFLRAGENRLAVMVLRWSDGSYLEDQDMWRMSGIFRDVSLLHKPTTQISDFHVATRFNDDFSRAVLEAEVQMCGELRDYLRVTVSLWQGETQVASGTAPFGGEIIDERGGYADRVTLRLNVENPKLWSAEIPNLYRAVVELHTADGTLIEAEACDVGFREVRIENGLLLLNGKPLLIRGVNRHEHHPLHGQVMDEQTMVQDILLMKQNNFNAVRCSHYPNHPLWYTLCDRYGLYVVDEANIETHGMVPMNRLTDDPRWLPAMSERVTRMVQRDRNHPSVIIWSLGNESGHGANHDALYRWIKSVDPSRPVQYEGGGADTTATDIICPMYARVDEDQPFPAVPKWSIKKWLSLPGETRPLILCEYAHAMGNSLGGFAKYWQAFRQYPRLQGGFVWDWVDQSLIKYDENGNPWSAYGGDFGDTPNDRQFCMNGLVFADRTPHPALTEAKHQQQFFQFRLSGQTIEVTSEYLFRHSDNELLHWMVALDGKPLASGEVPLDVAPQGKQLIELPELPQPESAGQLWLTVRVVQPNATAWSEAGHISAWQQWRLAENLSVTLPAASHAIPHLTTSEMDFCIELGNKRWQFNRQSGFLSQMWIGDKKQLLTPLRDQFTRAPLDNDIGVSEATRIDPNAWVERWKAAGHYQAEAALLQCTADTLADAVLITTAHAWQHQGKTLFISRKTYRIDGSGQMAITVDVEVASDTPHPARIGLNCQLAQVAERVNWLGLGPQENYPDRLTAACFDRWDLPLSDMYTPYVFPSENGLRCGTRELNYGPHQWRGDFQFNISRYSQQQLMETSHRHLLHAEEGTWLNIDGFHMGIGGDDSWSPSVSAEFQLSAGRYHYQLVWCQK

[8] = molecular target: T1, Polyadenylate-binding protein 1 (Homo sapiens, UniProt P11940); assay: PABP1 MLLE–PAM2 binding inhibitor potency, dose response, biochemical, fluorescence polarization, FITC-PAM2 peptide (AID 602259); assay type: functional; conditions: read-out: IC50_Mean
T1 sequence (P11940 whole entry): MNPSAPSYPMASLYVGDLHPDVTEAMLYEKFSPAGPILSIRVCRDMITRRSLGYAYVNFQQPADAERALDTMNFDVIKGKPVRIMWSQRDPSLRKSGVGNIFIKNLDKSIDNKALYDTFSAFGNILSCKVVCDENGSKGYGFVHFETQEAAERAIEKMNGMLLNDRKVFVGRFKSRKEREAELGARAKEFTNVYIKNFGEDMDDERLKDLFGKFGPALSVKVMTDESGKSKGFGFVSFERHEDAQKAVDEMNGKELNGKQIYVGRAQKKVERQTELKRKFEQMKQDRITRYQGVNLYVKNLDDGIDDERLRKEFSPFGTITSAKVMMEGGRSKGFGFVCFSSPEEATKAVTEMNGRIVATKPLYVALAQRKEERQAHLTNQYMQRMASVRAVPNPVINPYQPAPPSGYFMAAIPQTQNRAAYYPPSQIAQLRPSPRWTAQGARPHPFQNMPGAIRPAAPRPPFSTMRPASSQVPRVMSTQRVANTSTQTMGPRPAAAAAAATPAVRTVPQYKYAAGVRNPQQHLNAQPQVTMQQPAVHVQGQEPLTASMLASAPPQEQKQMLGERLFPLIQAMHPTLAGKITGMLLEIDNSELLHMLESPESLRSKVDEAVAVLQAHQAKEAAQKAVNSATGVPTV

[9] = molecular target: T2, Sentrin-specific protease 8 (Homo sapiens, UniProt Q96LD8); assay type: functional
T2 sequence (Q96LD8 whole entry): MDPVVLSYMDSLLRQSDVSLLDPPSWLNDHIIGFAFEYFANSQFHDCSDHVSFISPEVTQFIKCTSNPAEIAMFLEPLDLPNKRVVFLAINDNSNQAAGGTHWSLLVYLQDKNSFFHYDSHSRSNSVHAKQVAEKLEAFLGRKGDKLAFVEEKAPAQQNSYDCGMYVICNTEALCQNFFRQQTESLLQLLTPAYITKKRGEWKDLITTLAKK

[10] = molecular target: T3, Caspase-3 (Homo sapiens, UniProt P42574); assay: Dose-response confirmation of uHTS inhibitor hits of Sentrin-Specific Protease 8 in a Caspase-3 Fluorescence assay.; assay type: functional
T3 sequence (P42574 whole entry): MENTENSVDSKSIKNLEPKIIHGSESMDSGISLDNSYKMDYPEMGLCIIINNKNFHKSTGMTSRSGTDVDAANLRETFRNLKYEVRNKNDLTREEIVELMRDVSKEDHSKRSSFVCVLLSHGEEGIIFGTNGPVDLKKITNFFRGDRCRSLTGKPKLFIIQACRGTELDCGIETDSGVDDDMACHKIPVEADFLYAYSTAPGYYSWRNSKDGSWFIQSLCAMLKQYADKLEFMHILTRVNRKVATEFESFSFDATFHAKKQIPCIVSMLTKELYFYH

[11] = molecular target: T2, Sentrin-specific protease 8; assay type: functional; remark: listed apart in the source
[12] = molecular target: Tyrosyl-DNA phosphodiesterase 2 (Homo sapiens, UniProt O95551); assay: human TDP2 enzyme inhibitors, dose response, biochemical, epi absorbance, IC50 (AID 743297)
Chain of Tyrosyl-DNA phosphodiesterase 2 (O95551 whole entry): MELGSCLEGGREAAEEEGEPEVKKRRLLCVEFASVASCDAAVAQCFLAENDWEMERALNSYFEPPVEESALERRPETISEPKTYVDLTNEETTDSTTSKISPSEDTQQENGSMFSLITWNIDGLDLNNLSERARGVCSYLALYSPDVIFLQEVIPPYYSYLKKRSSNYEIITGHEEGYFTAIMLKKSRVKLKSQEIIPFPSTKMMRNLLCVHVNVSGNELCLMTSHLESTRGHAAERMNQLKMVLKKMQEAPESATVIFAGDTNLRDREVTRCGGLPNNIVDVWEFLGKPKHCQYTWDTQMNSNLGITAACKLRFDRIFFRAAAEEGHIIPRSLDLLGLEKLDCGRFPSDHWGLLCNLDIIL

[13] = molecular target: T1, Polyadenylate-binding protein 1; assay: PABP1 MLLE–PAM2 interaction inhibitors, dose response, miRNA deadenylation inhibitor project, biochemical, fluorescence polarization, Cy5-PAM2 peptide, secondary (AID 602260); assay type: functional; conditions: read-out: IC50_Mean
[14] = molecular target: DNA dC->dU-editing enzyme APOBEC-3A (Homo sapiens, UniProt P31941); assay: APOBEC3A DNA deaminase inhibitors, dose response, biochemical (AID 504722); assay type: functional
Chain of DNA dC->dU-editing enzyme APOBEC-3A (P31941 whole entry): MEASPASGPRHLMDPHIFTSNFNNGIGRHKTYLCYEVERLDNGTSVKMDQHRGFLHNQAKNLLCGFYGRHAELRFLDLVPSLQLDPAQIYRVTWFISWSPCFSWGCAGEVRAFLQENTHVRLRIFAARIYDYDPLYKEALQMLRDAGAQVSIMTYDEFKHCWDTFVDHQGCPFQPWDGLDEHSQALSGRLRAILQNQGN

[15] = molecular target: Endoplasmic reticulum aminopeptidase 1 (Homo sapiens, UniProt Q9NZ08); assay: ERAP1 aminopeptidase inhibitors, dose response, biochemical, cherry-pick, set 2, plate reader (AID 743314)
[16] = molecular target: DNA dC->dU-editing enzyme APOBEC-3G (Homo sapiens, UniProt Q9HC16); assay: Dose Response confirmation of small molecule APOBEC3G DNA Deaminase Inhibitors via a fluorescence-based single-stranded DNA deaminase assay. [Related pubchem assays (depositor defined):AID493012, AID493028]; assay type: functional
Chain of DNA dC->dU-editing enzyme APOBEC-3G (Q9HC16 whole entry): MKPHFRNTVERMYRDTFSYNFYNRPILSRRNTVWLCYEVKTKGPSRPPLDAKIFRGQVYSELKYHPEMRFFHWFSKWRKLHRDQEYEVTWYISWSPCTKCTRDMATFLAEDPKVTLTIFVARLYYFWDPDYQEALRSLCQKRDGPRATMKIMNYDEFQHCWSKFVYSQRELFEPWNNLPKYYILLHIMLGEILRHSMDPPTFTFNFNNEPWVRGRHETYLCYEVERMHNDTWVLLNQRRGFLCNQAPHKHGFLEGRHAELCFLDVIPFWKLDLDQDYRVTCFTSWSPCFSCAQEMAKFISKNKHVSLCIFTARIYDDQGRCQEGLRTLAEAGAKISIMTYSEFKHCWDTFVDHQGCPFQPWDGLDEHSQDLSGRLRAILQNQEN

[17] = molecular target: Metabotropic glutamate receptor 3 (Rattus norvegicus, UniProt P31422); assay: mGlu3 NAM potency via calcium readout, dose response, mGlu3 NAM project, TREx293 cells, Galpha15, calcium flux (AID 651840); assay type: functional
[18] = HepG2 cell cytotoxicity, dose response, cytotoxicity control, ATP luminescence, cherry-pick, activator set 2 (AID 1053143); assay type: functional, cell-based
[19] = molecular target: Apoptotic protease-activating factor 1 (Homo sapiens, UniProt O14727); assay type: functional
[20] = molecular target: T4, Microphthalmia-associated transcription factor (Homo sapiens, UniProt O75030); assay: TRPM1 promoter luciferase signal decrease, dose response, MITF inhibitor project, cell-based, SK-MEL-5, cherry-picked, set 3 (AID 493073); assay type: functional
T4 sequence (O75030 whole entry): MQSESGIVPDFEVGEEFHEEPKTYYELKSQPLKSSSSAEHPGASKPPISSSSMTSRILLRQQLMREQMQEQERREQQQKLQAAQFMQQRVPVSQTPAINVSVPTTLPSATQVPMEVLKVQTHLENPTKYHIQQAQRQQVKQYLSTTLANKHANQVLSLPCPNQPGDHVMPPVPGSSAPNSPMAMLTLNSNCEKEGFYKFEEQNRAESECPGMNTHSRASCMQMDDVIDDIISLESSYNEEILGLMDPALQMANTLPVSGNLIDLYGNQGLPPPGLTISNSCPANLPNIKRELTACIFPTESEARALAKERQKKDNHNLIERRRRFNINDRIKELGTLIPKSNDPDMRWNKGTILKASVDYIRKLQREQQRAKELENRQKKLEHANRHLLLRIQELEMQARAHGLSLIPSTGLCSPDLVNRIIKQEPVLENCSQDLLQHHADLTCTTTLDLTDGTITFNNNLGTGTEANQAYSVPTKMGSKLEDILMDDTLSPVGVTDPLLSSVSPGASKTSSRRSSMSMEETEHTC

[21] = system: HEK293; assay: NOD1 signaling inhibitors, primary screen, cell-based, luminescence, uHTS (AID 1578); assay type: functional; conditions: Homo sapiens
[22] = system: HEK293; assay: cells; assay type: functional, cell-based; conditions: Homo sapiens
[23] = system: HEK293; assay: NOD2 signaling inhibitors in MDP-stimulated cells, cell-based, uHTS, luminescence (AID 2001); assay type: functional; conditions: Homo sapiens
[24] = system: HEK293; assay: cells; assay type: functional, cell-based; conditions: Homo sapiens; remark: listed apart in the source
[25] = molecular target: ADP-ribosylation factor GTPase-activating protein 1 (Rattus norvegicus, UniProt Q62848); assay: Fluorescence polarization-based biochemical high throughput dose response screening assay to identify inhibitors of ADP-ribosylation factor GTPase activating protein 1 (ARFGAP1).; assay type: functional
Chain of ADP-ribosylation factor GTPase-activating protein 1 (Q62848 whole entry, the tested form may be a part): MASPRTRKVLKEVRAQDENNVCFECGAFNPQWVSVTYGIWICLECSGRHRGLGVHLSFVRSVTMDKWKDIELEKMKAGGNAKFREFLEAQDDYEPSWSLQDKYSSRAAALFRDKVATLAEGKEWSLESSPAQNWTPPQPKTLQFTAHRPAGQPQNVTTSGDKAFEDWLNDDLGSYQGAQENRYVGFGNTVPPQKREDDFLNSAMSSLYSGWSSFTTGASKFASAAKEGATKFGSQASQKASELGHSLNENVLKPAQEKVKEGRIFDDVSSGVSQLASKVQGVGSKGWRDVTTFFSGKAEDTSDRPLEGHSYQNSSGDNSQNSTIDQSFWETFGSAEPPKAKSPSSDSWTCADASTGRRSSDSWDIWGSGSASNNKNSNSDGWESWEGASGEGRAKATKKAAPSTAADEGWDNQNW

[26] = molecular target: Arf-GAP with SH3 domain, ANK repeat and PH domain-containing protein 1 (Homo sapiens, UniProt Q9ULH1); assay type: functional;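 note: biochemical fluorescence polarization dose–response screen measuring inhibition of ASAP1; ASAP1 GAP domain stimulating GTP hydrolysis by truncated human ARF1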
Chain of Arf-GAP with SH3 domain, ANK repeat and PH domain-containing protein 1 (Q9ULH1 whole entry, the tested form may be a part): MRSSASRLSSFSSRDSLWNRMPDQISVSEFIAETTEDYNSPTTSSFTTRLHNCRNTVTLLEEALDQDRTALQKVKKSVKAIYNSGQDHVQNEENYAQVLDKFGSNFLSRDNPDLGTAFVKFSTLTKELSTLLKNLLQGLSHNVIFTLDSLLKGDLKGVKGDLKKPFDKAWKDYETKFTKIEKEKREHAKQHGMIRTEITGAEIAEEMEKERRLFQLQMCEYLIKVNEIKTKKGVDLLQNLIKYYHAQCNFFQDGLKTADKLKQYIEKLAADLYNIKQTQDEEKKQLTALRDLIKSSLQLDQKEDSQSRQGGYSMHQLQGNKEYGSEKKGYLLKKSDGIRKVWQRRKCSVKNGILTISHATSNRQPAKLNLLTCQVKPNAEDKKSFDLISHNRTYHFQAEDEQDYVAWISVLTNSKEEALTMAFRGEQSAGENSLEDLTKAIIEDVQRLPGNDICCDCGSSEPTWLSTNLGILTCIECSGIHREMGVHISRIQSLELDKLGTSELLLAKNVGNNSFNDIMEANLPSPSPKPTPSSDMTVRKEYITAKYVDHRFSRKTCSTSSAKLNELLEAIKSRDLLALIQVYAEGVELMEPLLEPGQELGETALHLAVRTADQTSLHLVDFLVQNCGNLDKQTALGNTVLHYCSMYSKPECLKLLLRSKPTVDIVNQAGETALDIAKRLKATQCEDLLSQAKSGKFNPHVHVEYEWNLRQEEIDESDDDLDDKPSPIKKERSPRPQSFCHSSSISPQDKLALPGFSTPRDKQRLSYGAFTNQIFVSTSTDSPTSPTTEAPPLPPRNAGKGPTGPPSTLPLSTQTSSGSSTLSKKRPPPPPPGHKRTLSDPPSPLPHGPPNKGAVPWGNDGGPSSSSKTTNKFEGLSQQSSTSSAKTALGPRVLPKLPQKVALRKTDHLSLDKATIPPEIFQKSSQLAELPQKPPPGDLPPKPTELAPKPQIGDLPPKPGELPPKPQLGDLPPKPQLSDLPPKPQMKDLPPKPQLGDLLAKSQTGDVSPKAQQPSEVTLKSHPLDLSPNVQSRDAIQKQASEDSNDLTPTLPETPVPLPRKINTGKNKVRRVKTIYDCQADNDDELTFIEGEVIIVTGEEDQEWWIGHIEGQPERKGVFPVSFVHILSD

Structure (SMILES): N#C[C@H]1[C@@H](c2ccccc2C2=CCCCC2)[C@H](CO)N1S(=O)(=O)c1ccccc1
AC50 [1]: > 47 µM (inactive)

Structure (SMILES): C[C@@H]1CCCCO[C@H](CN(C)Cc2ccccc2)[C@H](C)CN([C@@H](C)CO)C(=O)c2cc(NC(=O)Nc3ccc(C(F)(F)F)cc3)ccc2O1
AC50 [4]: 9.11 µM (active)
AC50 [5]: 42.1 µM (active)
AC50 [6]: 45.7 µM (active)

Structure (SMILES): S=C(NCC1CCCO1)N1CCN(c2nc(-c3ccc(Cl)cc3)cs2)CC1 (stereo unspecified)
IC50 [7]: > 80 µM (inactive)

Structure (SMILES): O=C(CSc1cnn[nH]1)Nc1cccc(C(=O)O)c1
IC50 [14]: > 100 µM (inactive)
AC50 [15]: 8 µM (active)
IC50 [16]: 15.3 µM (active)

Structure (SMILES): CCc1ccc(NC2=CC(=O)C(=O)c3ccccc32)cc1
AC50 [18]: 6.77 µM (active)
IC50 [19]: 3.54 µM (active)
AC50 [20]: 3.59 µM (active)

Structure (SMILES): Clc1cccc(Cl)c1CONC=Nc1ncnc2sccc12
EC50 [21]: > 20 µM (inactive)
IC50 [22]: 7.79 µM (active)
IC50 [23]: 8.22 µM (active)
IC50 [24]: > 20 µM (inactive)
IC50 [25]: 30.3 µM (inactive)
IC50 [26]: 12.3 µM (inactive)

The next lines start with results.

IC50 [2]: 18.5 µM (active)
Structure (SMILES): CNc1c(C(=O)O)ccc2c1C(=O)c1ccccc1C2=O

IC50 [3]: 5.37 µM (active)
Structure (SMILES): O=C(Nc1cccc(NC(=O)c2ccccn2)c1)c1ccccc1

IC50 [8]: > 66 µM (inactive)
IC50 [10]: 23.9 µM (active)
IC50 [12]: 67.5 µM (inactive)
IC50 [13]: > 66 µM (inactive)
Structure (SMILES): COc1ccc2c(c1)Cc1sc(NC(C)=O)nc1-2
IC50 [9]: 9.19 µM (active)
IC50 [11]: 6.35 µM (active)

IC50 [17]: 0.509 µM
Structure (SMILES): COc1ccc(C#Cc2ccc(C(=O)N3CCC[C@@H](O)C3)c(F)c2)cc1

From ChEMBL document CHEMBL1201862, “PubChem BioAssay data set” (2004)
